The values that follow come from ChEMBL document CHEMBL4190187, “Discovery of pyrazolopyrimidine derivatives as novel inhibitors of ataxia telangiectasia and rad3 related protein (ATR)” (Bioorg Med Chem Lett, 2017).

In general, inhibition refers to the relative decrease from the control value, in per cent.

Assay [1] concerns RAC-gamma serine/threonine-protein kinase (Homo sapiens), Q9Y243 [S472D]. As to the kind of experiment: Inhibition of recombinant human PKBgamma S472D mutant (117 to end residues) at 1 uM using GRPRTSSFAEGKK as substrate after 40 mins in presence of [gamma-33P]ATP by scintillation counting method.
A further assay is filed under the species Mus musculus. The experiment in a line: Inhibition of recombinant full-length mouse p110a/recombinant p65a (1 to 571 residues) at 1 uM using phosphatidylinositol 4,5-bisphosphate as substrate after 40 mins in presence of [gamma-33P]ATP by scintillation counting method.
In assay [2] the test system is Mast/stem cell growth factor receptor Kit (Homo sapiens), P10721 [D816H]. The experiment in a line: Inhibition of recombinant human cKit D816H mutant (544 to end residues) at 1 uM using GGMEDIYFEFMGGKKK as substrate after 40 mins in presence of [gamma-33P]ATP by scintillation counting method.
For assay [3], the target named is Macrophage-stimulating protein receptor (Homo sapiens) (UniProt Q04912). The experiment in a line: Inhibition of recombinant human Ron (983 to end residues) at 1 uM using GGMEDIYFEFMGGKKK as substrate after 40 mins in presence of [gamma-33P]ATP by scintillation counting method.
Assay [4] addresses Aurora kinase A (Homo sapiens) (UniProt O14965). The experiment in a line: Inhibition of recombinant full-length human Aurora-A at 1 uM using LRRASLG (kemptide) as substrate after 40 mins in presence of [gamma-33P]ATP by scintillation counting method.
Assay [5] concerns the target Serine/threonine-protein kinase TAO2 (Homo sapiens) (UniProt Q9UL54). The experiment in a line: Inhibition of recombinant human TAO2 (1 to 320 residues) at 1 uM using myelin basic protein as substrate after 40 mins in presence of [gamma-33P]ATP by scintillation counting method.
Assay [6] addresses Serine/threonine-protein kinase 32A (Homo sapiens) (UniProt Q8WU08). The experiment in a line: Inhibition of recombinant full-length human STK32A at 1 uM using casein as substrate after 120 mins in presence of [gamma-33P]ATP by scintillation counting method.
Assay [7] has as its system Proto-oncogene tyrosine-protein kinase receptor Ret (Homo sapiens), P07949 [V804L]. As to the kind of experiment: Inhibition of recombinant human RET V804L mutant (658 to end residues) at 1 uM using KKKVSRSGLYRSPSMPENLNRPR as substrate after 40 mins in presence of [gamma-33P]ATP by scintillation counting method.
For assay [8], the target named is RAF proto-oncogene serine/threonine-protein kinase (Homo sapiens) (UniProt P04049). The experiment in a line: Inhibition of recombinant human c-RAF (306 to end residues) at 1 uM using inactive MEK1 as substrate after 40 mins in presence of [gamma-33P]ATP by scintillation counting method.
Chain of RAF proto-oncogene serine/threonine-protein kinase (Homo sapiens) (P04049 whole entry): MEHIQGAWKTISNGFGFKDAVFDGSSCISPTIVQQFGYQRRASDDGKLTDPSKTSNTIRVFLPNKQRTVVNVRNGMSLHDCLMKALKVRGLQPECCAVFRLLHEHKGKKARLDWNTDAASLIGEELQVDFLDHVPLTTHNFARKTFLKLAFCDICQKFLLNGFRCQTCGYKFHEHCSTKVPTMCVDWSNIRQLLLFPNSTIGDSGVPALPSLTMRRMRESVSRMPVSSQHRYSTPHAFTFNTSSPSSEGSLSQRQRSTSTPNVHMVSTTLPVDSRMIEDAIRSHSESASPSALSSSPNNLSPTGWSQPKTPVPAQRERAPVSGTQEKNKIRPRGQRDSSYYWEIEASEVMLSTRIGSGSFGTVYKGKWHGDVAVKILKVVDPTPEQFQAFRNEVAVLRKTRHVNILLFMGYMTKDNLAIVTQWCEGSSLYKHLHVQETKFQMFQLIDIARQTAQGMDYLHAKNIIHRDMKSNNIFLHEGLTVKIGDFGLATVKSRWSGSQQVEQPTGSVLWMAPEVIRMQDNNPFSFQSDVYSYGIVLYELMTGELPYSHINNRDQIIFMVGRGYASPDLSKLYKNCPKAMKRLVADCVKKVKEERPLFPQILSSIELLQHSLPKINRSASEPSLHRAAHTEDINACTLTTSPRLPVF
Assay [9] deals with Rhodopsin kinase GRK1 (Homo sapiens) (UniProt Q15835). As to the kind of experiment: Inhibition of recombinant full-length human GRK1 at 1 uM using KKKKERLLDDRHDSGLDSMKDEE as substrate after 40 mins in presence of [gamma-33P]ATP by scintillation counting method.
The target of assay [10] is 3-phosphoinositide-dependent protein kinase 1 (Homo sapiens) (UniProt O15530). As to the kind of experiment: Inhibition of recombinant human PDK1 (52 to end residues) at 1 uM using KTFCGTPEYLAPEVRREPRILSEEEQEMFRDFDYIADWC (PDKtide) as substrate after 40 mins in presence of [gamma-33P]ATP by scintillation counting method.
The target in assay [11] is Serine/threonine-protein kinase WNK2 (Homo sapiens) (UniProt Q9Y3S1). The experiment in a line: Inhibition of recombinant human WNK2 (166 to 489 residues) at 1 uM using myelin basic protein as substrate after 40 mins in presence of [gamma-33P]ATP by scintillation counting method.
For assay [12], the target named is Proto-oncogene tyrosine-protein kinase Src (Homo sapiens) (UniProt P12931). As to the kind of experiment: Inhibition of recombinant human Src (1 to 530 residues) at 1 uM using GGEEEEYFELVKKKK as substrate after 40 mins in presence of [gamma-33P]ATP by scintillation counting method.
Chain of Proto-oncogene tyrosine-protein kinase Src (Homo sapiens) (P12931 2-536 limits assumed): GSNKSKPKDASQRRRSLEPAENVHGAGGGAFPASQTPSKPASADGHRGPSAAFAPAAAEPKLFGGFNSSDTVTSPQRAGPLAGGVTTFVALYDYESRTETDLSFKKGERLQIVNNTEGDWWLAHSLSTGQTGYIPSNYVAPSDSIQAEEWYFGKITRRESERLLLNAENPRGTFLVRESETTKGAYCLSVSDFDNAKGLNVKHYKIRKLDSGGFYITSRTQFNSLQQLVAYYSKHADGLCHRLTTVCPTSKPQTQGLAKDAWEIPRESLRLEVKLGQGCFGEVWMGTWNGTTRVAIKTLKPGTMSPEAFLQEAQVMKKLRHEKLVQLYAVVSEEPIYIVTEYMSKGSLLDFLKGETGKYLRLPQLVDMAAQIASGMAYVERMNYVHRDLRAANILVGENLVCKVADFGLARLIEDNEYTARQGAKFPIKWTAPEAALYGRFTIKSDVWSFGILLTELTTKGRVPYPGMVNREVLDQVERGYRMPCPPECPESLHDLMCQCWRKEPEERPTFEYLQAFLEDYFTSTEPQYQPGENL
For assay [13], the system named is Platelet-derived growth factor receptor alpha (Homo sapiens), P16234 [D842V]. As to the kind of experiment: Inhibition of recombinant human PDGFRalpha D842V mutant (550 to end residues) at 1 uM using GGMEDIYFEFMGGKKK as substrate after 40 mins in presence of [gamma-33P]ATP by scintillation counting method.
Assay [14] deals with Receptor tyrosine-protein kinase erbB-2 (Homo sapiens) (UniProt P04626). As to the kind of experiment: Inhibition of recombinant human ErbB2 (676 to end residues) at 1 uM using poly(Glu,Tyr) 4:1 as substrate after 40 mins in presence of [gamma-33P]ATP by scintillation counting method.
Assay [15] has as its target Mitogen-activated protein kinase 13 (Homo sapiens) (UniProt O15264). The experiment in a line: Inhibition of recombinant full-length human SAPK4 at 1 uM using myelin basic protein as substrate after 40 mins in presence of [gamma-33P]ATP by scintillation counting method.
Assay [16] deals with Tyrosine-protein kinase receptor TYRO3 (Homo sapiens) (UniProt Q06418). The experiment in a line: Inhibition of recombinant human Rse (451 to end residues) at 1 uM using KVEKIGEGTYGVVYK as substrate after 40 mins in presence of [gamma-33P]ATP by scintillation counting method.
Chain of Tyrosine-protein kinase receptor TYRO3 (Homo sapiens) (Q06418 whole entry): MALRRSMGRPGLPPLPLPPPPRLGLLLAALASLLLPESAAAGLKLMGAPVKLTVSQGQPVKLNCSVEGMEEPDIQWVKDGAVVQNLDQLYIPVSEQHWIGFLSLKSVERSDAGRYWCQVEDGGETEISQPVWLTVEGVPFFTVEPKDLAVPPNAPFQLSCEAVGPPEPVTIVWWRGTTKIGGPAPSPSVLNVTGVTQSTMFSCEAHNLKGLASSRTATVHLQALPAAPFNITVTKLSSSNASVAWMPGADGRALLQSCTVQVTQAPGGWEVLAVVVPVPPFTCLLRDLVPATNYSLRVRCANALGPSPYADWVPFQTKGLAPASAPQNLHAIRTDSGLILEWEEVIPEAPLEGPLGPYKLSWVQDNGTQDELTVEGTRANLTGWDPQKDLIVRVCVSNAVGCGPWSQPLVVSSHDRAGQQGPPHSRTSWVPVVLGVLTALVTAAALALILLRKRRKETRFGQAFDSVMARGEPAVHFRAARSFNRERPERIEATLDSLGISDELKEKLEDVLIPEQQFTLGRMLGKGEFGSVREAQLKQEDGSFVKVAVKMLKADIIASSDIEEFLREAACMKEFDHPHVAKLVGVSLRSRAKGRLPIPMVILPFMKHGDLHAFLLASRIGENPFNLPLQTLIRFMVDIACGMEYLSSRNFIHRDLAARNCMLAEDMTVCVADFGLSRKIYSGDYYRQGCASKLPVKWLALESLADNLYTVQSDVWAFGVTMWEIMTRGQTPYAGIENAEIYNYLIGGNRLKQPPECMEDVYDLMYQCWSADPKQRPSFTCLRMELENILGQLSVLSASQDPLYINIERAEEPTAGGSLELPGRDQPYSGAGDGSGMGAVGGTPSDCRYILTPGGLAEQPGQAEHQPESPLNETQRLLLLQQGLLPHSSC
Assay [17] has as its target Ephrin type-A receptor 3 (Homo sapiens) (UniProt P29320). The experiment in a line: Inhibition of recombinant human EPHA3 (578 to end residues) at 1 uM using poly(Glu,Tyr) 4:1 as substrate after 40 mins in presence of [gamma-33P]ATP by scintillation counting method.
Assay [18] concerns the target NT-3 growth factor receptor (Homo sapiens) (UniProt Q16288). The experiment in a line: Inhibition of recombinant human TrkC (510 to end residues) at 1 uM using GEEPLYWSFPAKKK as substrate after 40 mins in presence of [gamma-33P]ATP by scintillation counting method.
Assay [19] has as its system Proto-oncogene tyrosine-protein kinase Src (Homo sapiens), P12931 [T341M]. As to the kind of experiment: Inhibition of recombinant full-length human Src T341M mutant at 1 uM using GGEEEEYFELVKKKK as substrate after 40 mins in presence of [gamma-33P]ATP by scintillation counting method.
Assay [20] deals with Mitogen-activated protein kinase 10 (Homo sapiens) (UniProt P53779). The experiment in a line: Inhibition of recombinant full-length human JNK3 at 1 uM using peptide as substrate after 40 mins in presence of [gamma-33P]ATP by scintillation counting method.
Chain of Mitogen-activated protein kinase 10 (Homo sapiens) (P53779 whole entry): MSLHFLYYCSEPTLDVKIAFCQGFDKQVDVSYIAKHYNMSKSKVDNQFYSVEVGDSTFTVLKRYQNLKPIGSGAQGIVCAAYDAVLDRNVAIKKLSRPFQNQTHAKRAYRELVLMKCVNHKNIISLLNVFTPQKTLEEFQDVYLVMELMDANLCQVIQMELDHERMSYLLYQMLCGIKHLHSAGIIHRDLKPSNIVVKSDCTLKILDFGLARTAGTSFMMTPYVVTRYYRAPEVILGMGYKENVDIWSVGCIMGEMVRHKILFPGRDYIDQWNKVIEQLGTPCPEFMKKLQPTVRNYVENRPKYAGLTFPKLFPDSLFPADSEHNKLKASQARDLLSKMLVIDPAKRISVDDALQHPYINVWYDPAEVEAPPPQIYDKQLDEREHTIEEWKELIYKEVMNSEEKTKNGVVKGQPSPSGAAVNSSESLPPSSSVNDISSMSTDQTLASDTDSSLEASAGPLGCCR
The target in assay [21] is Serine/threonine-protein kinase A-Raf (Homo sapiens) (UniProt P10398). As to the kind of experiment: Inhibition of recombinant human A-Raf (273 to end residues) at 1 uM using myelin basic protein as substrate after 40 mins in presence of [gamma-33P]ATP by scintillation counting method.
Chain of Serine/threonine-protein kinase A-Raf (Homo sapiens) (P10398 whole entry): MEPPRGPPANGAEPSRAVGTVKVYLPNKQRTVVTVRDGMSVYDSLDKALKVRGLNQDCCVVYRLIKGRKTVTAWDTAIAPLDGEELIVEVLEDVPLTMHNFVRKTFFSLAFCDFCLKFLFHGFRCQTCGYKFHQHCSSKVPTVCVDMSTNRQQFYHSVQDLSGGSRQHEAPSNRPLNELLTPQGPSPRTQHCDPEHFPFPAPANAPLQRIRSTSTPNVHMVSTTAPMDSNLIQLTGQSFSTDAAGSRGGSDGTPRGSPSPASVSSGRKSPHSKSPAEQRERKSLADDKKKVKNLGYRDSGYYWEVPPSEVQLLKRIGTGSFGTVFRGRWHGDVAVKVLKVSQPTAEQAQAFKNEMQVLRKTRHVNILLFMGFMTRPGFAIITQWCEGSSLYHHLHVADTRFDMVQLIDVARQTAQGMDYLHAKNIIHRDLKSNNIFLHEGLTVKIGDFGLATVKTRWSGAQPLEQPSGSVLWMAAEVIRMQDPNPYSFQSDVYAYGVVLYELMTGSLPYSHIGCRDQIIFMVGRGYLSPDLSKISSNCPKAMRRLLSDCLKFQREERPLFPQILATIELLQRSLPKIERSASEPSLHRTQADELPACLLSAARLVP
Assay [22] deals with Tyrosine-protein kinase Blk (Mus musculus) (UniProt P16277). As to the kind of experiment: Inhibition of recombinant full-length mouse Blk at 1 uM using poly(Glu,Tyr) 4:1 as substrate after 40 mins in presence of [gamma-33P]ATP by scintillation counting method.
Chain of Tyrosine-protein kinase Blk (Mus musculus) (P16277 whole entry): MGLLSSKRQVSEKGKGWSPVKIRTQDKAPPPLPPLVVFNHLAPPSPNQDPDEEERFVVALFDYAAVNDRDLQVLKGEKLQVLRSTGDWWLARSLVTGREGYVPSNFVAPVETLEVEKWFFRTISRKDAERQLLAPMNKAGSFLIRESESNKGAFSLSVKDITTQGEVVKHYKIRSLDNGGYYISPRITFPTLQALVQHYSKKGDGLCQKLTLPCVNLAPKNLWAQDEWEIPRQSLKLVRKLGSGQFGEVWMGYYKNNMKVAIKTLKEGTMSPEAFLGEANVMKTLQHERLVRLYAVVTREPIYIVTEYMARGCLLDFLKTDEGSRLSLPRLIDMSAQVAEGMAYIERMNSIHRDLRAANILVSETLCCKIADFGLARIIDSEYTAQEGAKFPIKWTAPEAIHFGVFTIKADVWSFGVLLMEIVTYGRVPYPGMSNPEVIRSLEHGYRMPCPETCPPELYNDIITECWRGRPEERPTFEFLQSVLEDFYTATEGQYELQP

Chain of NT-3 growth factor receptor (Homo sapiens) (Q16288 32-839 limits assumed): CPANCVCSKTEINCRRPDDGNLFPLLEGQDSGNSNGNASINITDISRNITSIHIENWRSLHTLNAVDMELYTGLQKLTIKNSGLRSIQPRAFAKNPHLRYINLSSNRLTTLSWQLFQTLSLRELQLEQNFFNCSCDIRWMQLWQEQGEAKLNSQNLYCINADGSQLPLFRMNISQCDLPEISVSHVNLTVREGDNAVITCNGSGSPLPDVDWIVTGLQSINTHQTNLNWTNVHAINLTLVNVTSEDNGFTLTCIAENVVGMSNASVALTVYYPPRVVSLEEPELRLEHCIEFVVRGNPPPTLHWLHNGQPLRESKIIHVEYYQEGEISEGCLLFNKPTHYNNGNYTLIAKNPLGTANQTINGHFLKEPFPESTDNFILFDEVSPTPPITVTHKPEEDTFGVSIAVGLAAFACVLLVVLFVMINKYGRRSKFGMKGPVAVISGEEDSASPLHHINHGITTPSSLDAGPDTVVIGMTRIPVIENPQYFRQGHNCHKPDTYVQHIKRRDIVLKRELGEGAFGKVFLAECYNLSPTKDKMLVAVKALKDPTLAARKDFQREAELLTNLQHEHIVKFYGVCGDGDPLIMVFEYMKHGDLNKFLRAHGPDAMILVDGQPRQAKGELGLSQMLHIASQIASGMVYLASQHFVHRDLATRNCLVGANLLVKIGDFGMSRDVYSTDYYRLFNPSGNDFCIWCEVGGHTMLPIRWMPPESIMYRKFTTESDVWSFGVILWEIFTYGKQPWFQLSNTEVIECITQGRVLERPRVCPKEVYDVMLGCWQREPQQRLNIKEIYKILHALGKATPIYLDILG
Chain of Mitogen-activated protein kinase 13 (Homo sapiens) (O15264 whole entry): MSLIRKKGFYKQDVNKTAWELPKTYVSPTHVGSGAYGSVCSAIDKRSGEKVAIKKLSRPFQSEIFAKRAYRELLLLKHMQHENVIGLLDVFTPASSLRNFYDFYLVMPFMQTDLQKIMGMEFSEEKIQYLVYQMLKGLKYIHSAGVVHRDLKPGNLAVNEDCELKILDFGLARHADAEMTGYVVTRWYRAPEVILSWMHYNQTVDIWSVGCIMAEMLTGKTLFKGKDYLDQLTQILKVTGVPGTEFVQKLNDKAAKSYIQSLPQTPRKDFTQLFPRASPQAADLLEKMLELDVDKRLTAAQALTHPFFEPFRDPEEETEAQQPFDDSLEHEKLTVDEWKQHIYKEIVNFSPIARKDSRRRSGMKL

Take `CS(=O)(=O)c1ccc(-n2nc(-c3cnc4[nH]ccc4c3)c3c(N)ncnc32)cc1`: the inhibition in assay [1] is -7%; in the assay filed under Mus musculus, 7%; in assay [2] it was 85%; in assay [3], 2%; in [4], 15%; in assay [5], 9%. Moreover, the inhibition in assay [6] was 6%; in assay [7], 20%; in assay [8], -1%; in assay [9], 10%; in [10] it was -6%; in [11], 23%. Moreover, the inhibition in [12] is 64%; in [13], 47%; in [14], 6%; in assay [15], -5%; in assay [16], 4%; in assay [17] it was 7%. For the same molecule, the inhibition in assay [18] is 2%; in assay [19] it was 7%; in assay [20], 8%; in assay [21], -10%; in assay [22], 12%.
